Experimental data: ChEMBL document CHEMBL6074682, “Expanding the therapeutic window of gramicidin S towards a safe and effective systemic treatment of methicillin-resistant S. aureus infections” (Eur J Med Chem, 2025)
Values after ≈ are worked out from the molar mass of the structure shown. Peptide text beside a SMILES is read from it.

Columns and labels:
[1] = Hemolytic activity in sheep RBC; type: toxicity, cell-based, Ovis aries, Erythrocyte; conditions: sheep red blood cells
Staphylococcus aureus [2] = test: Antibacterial activity against methicillin-resistant Staphylococcus aureus ATCC USA 300 clinical isolate assessed as bacterial growth inhibition at 256 to 0.125 ug/ml in CAMH broth medium incubated for 16 to 20 hrs by broth microdilution method; type: functional; conditions: dose 256-0.125 µg/ml, time 16-20 hrs
[3] = Therapeutic index, ratio of HC50 for human RBC to MIC for antibacterial activity against methicillin-sensitive Staphylococcus aureus ATCC 29213 clinical isolate; type: toxicity, cell-based; conditions: pooled result: one value given for 2 cell lines, strains, targets or settings, read-out: TI
[4] = Hemolytic activity in human RBC assessed as hemolysis incubated for 1 hr by absorbance based assay; type: toxicity, cell-based, Erythrocyte; conditions: human red blood cells
[5] = Nephrotoxicity against HEK293 cells assessed as cell viability incubated for 24 hrs by MTT assay; type: toxicity, cell-based; conditions: human
Staphylococcus aureus [6] = test: Antibacterial activity against methicillin-sensitive Staphylococcus aureus ATCC 29213 clinical isolate assessed as bacterial growth inhibition at 256 to 0.125 ug/ml in CAMH broth medium incubated for 16 to 20 hrs by broth microdilution method; type: functional; conditions: dose 256-0.125 µg/ml, time 16-20 hrs
[7] = Retention time of the compound by RP-HPLC analysis; type: physicochemical

CC(C)C[C@@H]1NC(=O)[C@H](CCCN)NC(=O)[C@H](C(C)C)NC(=O)[C@@H]2CCCN2C(=O)[C@@H](Cc2ccccc2)NC(=O)[C@H](CC(C)C)NC(=O)[C@H](CCCN)NC(=O)[C@H](C(C)C)NC(=O)[C@@H]2CCCN2C(=O)[C@@H](CCCNC(=N)N)NC1=O (HELM PEPTIDE1{L.[dF].P.V.[Orn].L.[dR].P.V.[Orn]}$PEPTIDE1,PEPTIDE1,1:R1-10:R2$$$V2.0)
HC50 [1]: > 115 µg/mL | MIC (Staphylococcus aureus [2]): 8 µg/mL (≈ 6.95 µM) | selectivity ratio [3]: 4.9 | HC50 at 1 h [4]: 39.2 µg/mL | IC50 at 24 h [5]: 18.7 µg/mL (≈ 16.2 µM) | MIC (Staphylococcus aureus [6]): 8 µg/mL (≈ 6.95 µM) | Retention_time [7]: 16.22 min
